{"source": "paper PMC10914734", "about": "(Signal Transduction and Targeted Therapy, 2024)", "key": {"SARS-CoV-2": {"test_system": "SARS-CoV-2", "test": "Authentic virus inhibition assay, SARS-CoV-2 wild-type strain in Vero-E6 cells", "type": "cell-based", "details": "Severe acute respiratory syndrome coronavirus 2, Vero C1008"}, "MERS-CoV PsV": {"test_system": "MERS-CoV PsV", "test": "microbe, parasite or virus in culture", "type": "cell-based", "details": "Middle East respiratory syndrome-related coronavirus, Huh-7, read-out: EC50, MERS-CoV PsV"}, "Human Trypsin": {"test_system": "Human Trypsin", "test": "Protease panel, trypsin inhibition", "type": "biochemical", "details": "at a concentration of 20 μM"}, "HCoV-OC43": {"test_system": "HCoV-OC43", "test": "microbe, parasite or virus in culture", "type": "cell-based", "details": "Betacoronavirus 1, OC43, RD, read-out: EC50, authentic HCoV-OC43"}, "Pharmacokinetics in mice": {"test": "Pharmacokinetics in mice", "type": "in vivo", "details": "14a; for AUC(0-inf): read-out: AUCINF_obs; for MRT inf: read-out: MRTINF_obs"}, "C57BL/6 mice": {"test_system": "C57BL/6 mice", "test": "In vivo acute toxicity study in mice", "details": "oral, 1000 mg/kg/day and 2000 mg/kg/day", "method": "C57BL/6 mice (aged 6–8 weeks, 16–25 g) consisting of half male and half female were used to assess toxicity of compounds 14a and 14b in vivo. Compounds, vehicle, dosage, and administration schemes are shown in Supplementary Table S6. In short, mice were treated with compounds 14a and 14b at the indicated doses by oral gavage and the mice were clinically observed for 12 days after administration, including body weights, food consumption, and general status. At the end of the studies, the mice were anesthetized by Zoletil 50, and the organ and tissue samples were observed by naked eyes."}, "Human Caspase 3": {"target": "Human Caspase 3 (Homo sapiens, UniProt P42574)", "sequence (P42574 29-175 limits assumed)": "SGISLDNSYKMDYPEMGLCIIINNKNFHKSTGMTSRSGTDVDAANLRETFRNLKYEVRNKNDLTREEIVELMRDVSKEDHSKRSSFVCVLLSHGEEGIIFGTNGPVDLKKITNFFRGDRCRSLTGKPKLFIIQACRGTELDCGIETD", "sequence (P42574 176-277 limits assumed)": "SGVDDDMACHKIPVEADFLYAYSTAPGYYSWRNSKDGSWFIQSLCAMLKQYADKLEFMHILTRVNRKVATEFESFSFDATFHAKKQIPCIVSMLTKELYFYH", "test": "Protease panel, caspase 3 inhibition", "type": "biochemical", "details": "at a concentration of 20 μM; read-out: Inhibition rate, Human Caspase 3"}, "SARS-CoV-2 PsV": {"test_system": "SARS-CoV-2 PsV", "test": "microbe, parasite or virus in culture", "type": "cell-based", "details": "Severe acute respiratory syndrome coronavirus 2, 293T/ACE2, read-out: EC50, SARS-CoV-2 PsV"}, "SARS-CoV-2 PL^pro": {"target": "SARS-CoV-2 PL^pro (Severe acute respiratory syndrome coronavirus 2, UniProt P0DTD1)", "test": "biochemical", "type": "biochemical", "details": "at a concentration of 20 μM"}, "Pharmacokinetics in dogs": {"test": "Pharmacokinetics in dogs", "type": "in vivo", "details": "for AUC(0-inf): read-out: AUCINF_obs; for MRT inf: read-out: MRTINF_obs", "method": "Three groups of male Beagle dogs weighing 9 to 12 kg (2 animals per group) were intravenously (1 mg/kg), subcutaneously (1 mg/kg) and orally (5 mg/kg) dosed 14a in a vehicle consisting of 5% dimethyl sulfoxide, 7.5% Kolliphor HS 15 and 87.5% saline (volume ratio). Serial blood samples were collected at 0.083, 0.25, 0.75, 2.0, 4.0, 6.0, 8.0 and 24.0 h for the intravenous and […] groups and 0.25, 0.5, 1.0, 2.0, 4.0, 6.0, 8.0 and 24.0 h for the oral group after dose administration. Two groups of male Beagle dogs weighing 9 to 12 kg (3 animals per group) were intravenously (1 mg/kg) and subcutaneously (1 mg/kg) dosed 14b in a vehicle consisting of 5% dimethyl sulfoxide, 5% ethanol, 40% polyethylene glycol 400 and 50% saline (volume ratio). Serial blood samples were collected at 0.083, 0.25, 0.50, 1.00, 2.00, 4.00, 8.00 and 24.0 h after dose administration. A group of 3 male Beagle dogs weighing 9 to 12 kg was administered an oral dose of 5 mg/kg 14b in a vehicle consisting of 5% dimethyl sulfoxide and 95% hydroxypropyl methyl cellulose solution (0.5% hydroxypropyl methyl cellulose in deionized water in weight ratio) (volume ratio). Serial blood samples were collected at 0.25, 0.50, 1.00, 2.00, 4.00, 8.00 and 24.0 h after dose administration. All blood samples were obtained by centrifugation and stored at -20 °C until analysis.\nPlasma compound concentrations were obtained through HPLC-MS/MS, and the pharmacokinetics parameters were analyzed by Phoenix WinNonlin 7.0. The following parameters were determined: Cmax (maximal concentration of drug in plasma), AUClast or AUCINF_obs (area under the concentration curve from the time of dosing to the last measurable concentration or from the time of dosing to infinity, respectively). Tmax (time of maximum observed concentration), T1/2 (half-life of elimination), MRTINF_obs (mean residence time extrapolated to infinity for a substance administered by indicated dosing using observed last concentration), CL (total body clearance), Vss (volume of distribution at steady state) and F (absolute bioavailability, F = (AUCx × Di.v.)/( AUCi.v. × Dx) × 100%, where x is i.p., s.c. or p.o., and AUC is AUCINF_obs).The pharmacokinetic parameters were analyzed by Phoenix WinNonlin 7.0."}, "[1]": {"details": "male, ICR, mouse, plasma, ip, i.p. (5 mg/kg)"}, "[2]": {"details": "male, ICR, mouse, plasma, iv, i.v. (5 mg/kg)"}, "[3]": {"details": "male, ICR, mouse, plasma, po, p.o. (10 mg/kg)"}, "[4]": {"details": "male, Beagle, dog, plasma, iv, i.v. (1 mg/kg)"}, "[5]": {"details": "male, Beagle, dog, plasma, po, p.o. (5 mg/kg)"}, "[6]": {"details": "male, Beagle, dog, plasma, sc, s.c. (1 mg/kg)"}}, "data": [{"smiles": "O=C(NCc1ccccc1)C(=O)[C@H](C[C@@H]1CCCNC1=O)NC(=O)[C@H](Cc1ccc(F)cc1)NC(=O)c1cc2ccccc2o1", "note": "[14a, N-((S)-1-(((S)-4-(benzylamino)-3,4-dioxo-1-((S)-2-oxopiperidin-3-yl)butan-2-yl)amino)-3-(4-fluorophenyl)-1-oxopropan-2-yl)benzofuran-2-carboxamide]", "values": [{"measurement": "EC50", "setting": "SARS-CoV-2", "value": "51.7 ± 10.8", "unit": "nM"}, {"measurement": "EC50", "setting": "MERS-CoV PsV", "value": "29.8 ± 5.72", "unit": "nM"}, {"measurement": "Inhibition rate, Human Trypsin", "setting": "Human Trypsin", "value": "3 ± 1", "unit": "%"}, {"measurement": "EC50", "setting": "HCoV-OC43", "value": "3.38 ± 2.07", "unit": "µM"}, {"measurement": "Vss_obs", "setting": "Pharmacokinetics in mice; i.v. (5 mg/kg)", "value": 9500, "unit": "mL/kg"}, {"measurement": "AUC(0-t)", "setting": "Pharmacokinetics in mice; [1]", "value": 1260, "unit": "ng·h/mL"}, {"measurement": "Cmax", "setting": "Pharmacokinetics in mice; [1]", "value": 1120, "unit": "ng/mL"}, {"measurement": "Tmax", "setting": "Pharmacokinetics in mice; [1]", "value": 15, "unit": "min"}, {"measurement": "bioavailability", "setting": "Pharmacokinetics in mice; [1]", "value": 101, "unit": "%"}, {"measurement": "half-life", "setting": "Pharmacokinetics in mice; [1]", "value": 421, "unit": "min"}, {"measurement": "AUC(0-inf)", "setting": "Pharmacokinetics in mice; [1]", "value": 1270, "unit": "ng·h/mL"}, {"measurement": "MRT inf", "setting": "Pharmacokinetics in mice; [1]", "value": 1.82, "unit": "h"}, {"measurement": "AUC", "setting": "Pharmacokinetics in mice; male, ICR, mouse, plasma, ip, intraperitoneal (10 mg/kg) as printed in the text, read-out: area under the curve (AUC)", "value": 1270, "unit": "ng·h/mL"}, {"measurement": "AUC(0-t)", "setting": "Pharmacokinetics in mice; [2]", "value": 1220, "unit": "ng·h/mL"}, {"measurement": "clearance", "setting": "Pharmacokinetics in mice; [2]", "value": 66, "unit": "mL/min/kg"}, {"measurement": "half-life", "setting": "Pharmacokinetics in mice; [2]", "value": 1110, "unit": "min"}, {"measurement": "AUC(0-inf)", "setting": "Pharmacokinetics in mice; [2]", "value": 1260, "unit": "ng·h/mL"}, {"measurement": "MRT inf", "setting": "Pharmacokinetics in mice; [2]", "value": 2.4, "unit": "h"}, {"measurement": "AUC(0-t)", "setting": "Pharmacokinetics in mice; [3]", "value": 125, "unit": "ng·h/mL"}, {"measurement": "Cmax", "setting": "Pharmacokinetics in mice; [3]", "value": 124, "unit": "ng/mL"}, {"measurement": "Tmax", "setting": "Pharmacokinetics in mice; [3]", "value": 15, "unit": "min"}, {"measurement": "bioavailability", "setting": "Pharmacokinetics in mice; [3]", "value": 5, "unit": "%"}, {"measurement": "half-life", "setting": "Pharmacokinetics in mice; [3]", "value": 65.4, "unit": "min"}, {"measurement": "AUC(0-inf)", "setting": "Pharmacokinetics in mice; [3]", "value": 126, "unit": "ng·h/mL"}, {"measurement": "MRT inf", "setting": "Pharmacokinetics in mice; [3]", "value": 1.09, "unit": "h"}, {"measurement": "Acute toxicity study, abnormalities in body weights, food mean daily consumption and general status", "setting": "C57BL/6 mice", "value": "No abnormalities"}, {"measurement": "Acute toxicity study, mortality", "setting": "C57BL/6 mice", "value": "No mice died"}, {"measurement": "Acute toxicity study, organs and tissues damage", "setting": "C57BL/6 mice; at the end of observation", "value": "No obvious organs and tissues damage"}, {"measurement": "Acute toxicity study, overall result", "setting": "C57BL/6 mice; twice daily, observed 12 days", "value": "No obvious toxicity"}, {"measurement": "inhibition", "setting": "Human Caspase 3", "value": "25 ± 2", "unit": "%"}, {"measurement": "EC50", "setting": "SARS-CoV-2 PsV", "value": "3.33 ± 1.9", "unit": "nM"}, {"measurement": "Inhibitory activity against papain-like protease (PL^pro) (in words)", "setting": "SARS-CoV-2 PL^pro", "value": "no inhibitory activity"}, {"measurement": "inhibition at 20 µM", "setting": "SARS-CoV-2 PL^pro; read-out: Inhibition rate, SARS-CoV-2 PL^pro", "value": "3 ± 2", "unit": "%"}, {"measurement": "Vss_obs", "setting": "Pharmacokinetics in dogs; i.v. (1 mg/kg)", "value": 1050, "unit": "mL/kg"}, {"measurement": "AUC(0-t)", "setting": "Pharmacokinetics in dogs; [4]", "value": 732, "unit": "ng·h/mL"}, {"measurement": "clearance", "setting": "Pharmacokinetics in dogs; [4]", "value": 24.4, "unit": "mL/min/kg"}, {"measurement": "half-life", "setting": "Pharmacokinetics in dogs; [4]", "value": 62.4, "unit": "min"}, {"measurement": "AUC(0-inf)", "setting": "Pharmacokinetics in dogs; [4]", "value": 735, "unit": "ng·h/mL"}, {"measurement": "MRT inf", "setting": "Pharmacokinetics in dogs; [4]", "value": 0.74, "unit": "h"}, {"measurement": "AUC(0-t)", "setting": "Pharmacokinetics in dogs; [5]", "value": 351, "unit": "ng·h/mL"}, {"measurement": "Cmax", "setting": "Pharmacokinetics in dogs; [5]", "value": 154, "unit": "ng/mL"}, {"measurement": "Tmax", "setting": "Pharmacokinetics in dogs; [5]", "value": 45, "unit": "min"}, {"measurement": "bioavailability", "setting": "Pharmacokinetics in dogs; [5]", "value": 10, "unit": "%"}, {"measurement": "half-life", "setting": "Pharmacokinetics in dogs; [5]", "value": 79.8, "unit": "min"}, {"measurement": "AUC(0-inf)", "setting": "Pharmacokinetics in dogs; [5]", "value": 357, "unit": "ng·h/mL"}, {"measurement": "MRT inf", "setting": "Pharmacokinetics in dogs; [5]", "value": 1.86, "unit": "h"}, {"measurement": "AUC(0-t)", "setting": "Pharmacokinetics in dogs; [6]", "value": 881, "unit": "ng·h/mL"}, {"measurement": "Cmax", "setting": "Pharmacokinetics in dogs; [6]", "value": 116, "unit": "ng/mL"}, {"measurement": "Tmax", "setting": "Pharmacokinetics in dogs; [6]", "value": 30, "unit": "min"}, {"measurement": "bioavailability", "setting": "Pharmacokinetics in dogs; [6]", "value": 120, "unit": "%"}, {"measurement": "half-life", "setting": "Pharmacokinetics in dogs; [6]", "value": 238, "unit": "min"}, {"measurement": "AUC(0-inf)", "setting": "Pharmacokinetics in dogs; [6]", "value": 893, "unit": "ng·h/mL"}, {"measurement": "MRT inf", "setting": "Pharmacokinetics in dogs; [6]", "value": 5.14, "unit": "h"}]}]}
